# How the values were obtained:
# Assay type in all cases: cell-based, human
# [1] = tested on: A2780cis (cisplatin-resistant clone of A2780); experiment: MTT cytotoxicity assay, A2780cis
# Experimental: The human epithelial ovarian cancer A2780 cell line and its cisplatin-resistant clone A2780cis were obtained from Sigma-Aldrich (Milano, Italy). A2780cis cells were continuously exposed to 1 μM cisplatin to maintain cisplatin resistance. A549 cells (Human non-small cell lung cancer), MCF7 (metastatic breast cancer), PC3 (highly aggressive metastatic prostate cancer), and MG63 (osteosarcoma) were obtained from the American Type Culture Collection (ATCC). Cells were authenticated in laboratory using the PowerPlex 16 HS System. A2780, A2780cis, and PC3 cells were cultured in RPMI-1640 medium; MG63 and MCF7 cells were cultured in DMEM, and A549 cells were cultured in F12 NUT-MIX. The culture medium contained about 10% fetal bovine serum (FBS) (Gibco, Thermo Fisher Scientific, Monza, Italy), about 1% (v/v) of penicillin (10,000 units/mL)-streptomycin (10 mg/mL), and about 1% (v/v) L-glutamine (200 mM) (all from Sigma-Aldrich). Cells were cultured at 37° C. in a 5% CO2, fully humidified atmosphere.
# 2.5×10^3 (PC3, MG63, MCF7) or 4.0×10^3 (A2780, A2780cis, A549) cells were seeded in 96-well microplates in 100 μL culture medium. Cells, allowed to adhere for 24 h, were then treated in triplicate with increasing concentrations of gold compounds. Cisplatin was included as a reference drug. Cell viability was evaluated using 3-(4,5-dimethylthiazol-2-yl)-2,5-diphenyltetrazolium bromide (MTT) assay (Sigma-Aldrich) after 72 h of treatment. Half maximal inhibitory concentrations (IC50), IC25, and IC75 were calculated using the CalcuSyn software version 2 (Biosoft, Ferguson, MO, USA) (See: Chou, T. C.; Talalay, P. Quantitative Analysis of Dose-Effect Relationships: The Combined Effects of Multiple Drugs or Enzyme Inhibitors. Adv. Enzyme Regul. 1984, 22, 27-55, which is incorporated herein by reference in its entirety). Fold resistance was calculated as the ratio of the IC50 of the A2780cis to that of the parental cell line A2780. Alternatively, cell viability was assayed by crystal violet staining (See: Feoktistova, M.; Geserick, P.; Leverkus, M. Crystal Violet Assay for Determining Viability of Cultured Cells. Cold Spring Harb Protoc 2016, 2016, pdb.prot087379, which is incorporated herein by reference in its entirety). Alternatively, after drug treatment, the culture Medium was removed, cells washed, fixed, and stained, and the Crystal Violet solution lasted 20 minutes (See: Sulaiman, A. A. A.; Casagrande, N.; Borghese, C.; Corona, G.; Isab, A. A.; Ahmad, S.; Aldinucci, D.; Altaf M. Design, Synthesis, and Preclinical Activity in Ovarian Cancer Models of New Phosphanegold(I)—N-Heterocyclic Carbene Complexes. J Med Chem 2022, 65, 14424-14440, which is incorporated herein by reference in its entirety).
# [2] = tested on: Bcl-2; experiment: Bcl-2 expression, flow cytometry; settings: A549, 72 h
# Experimental: (§1) 2.0×10^5 A549 cells were seeded in 6-well plates in a complete medium and treated with the complex 3. Assay results were detected by flow cytometry on a BD FACSCanto II flow cytometer. Data were analyzed using BD FACSDiva v.8.0.1 software (BD Biosciences) unless otherwise indicated. Tumor cells were treated for 72 h with complex 3, then stained for 15 minutes with FITC Annexin-V (Thermo Fisher Scientific) and 7AAD (BD Pharmingen, Milan, Italy). Activated caspase-3,7 was detected using the CaspaTag Caspase-3,7 assay (Merck Millipore) after an incubation of 24 h with complex 3. For B-cell lymphoma/leukemia-2 protein (Bcl-2) and Bcl-2 associated x protein (Bax) analysis, cells were treated for 72 h with C3, then fixed and permeabilized (FIX & PERM Cell Fixation & Cell Permeabilization Kit, Life Technologies). […] The distribution of cells in different cell cycle phases was quantified using ModFit LT 4.0 software (Verity Software House, Topsham, ME, USA) (See: Sulaiman, A. A. A.; Casagrande, N.; Borghese, C.; Corona, G.; Isab, A. A.; Ahmad, S.; Aldinucci, D.; Altaf M. Design, Synthesis, and Preclinical Activity in Ovarian Cancer Models of New Phosphanegold(I)—N-Heterocyclic Carbene Complexes. J Med Chem 2022, 65, 14424-14440, which is incorporated herein by reference in its entirety). […]
# [3] = tested on: ALDH1; experiment: ALDH1 enzymatic activity (Aldeflour), flow cytometry; settings: A549, 24 h
# Experimental: as §1
# [4] = tested on: CD44; experiment: CD44 surface expression, flow cytometry; settings: A549, 24 h
# Experimental: as §1
# [5] = tested on: A549 cells; experiment: Mitochondrial ROS generation (MitoSOX Red); settings: A549, 48 h
# Experimental: as §1
# [6] = tested on: 20S proteasome; experiment: 20S Proteasome Activity Assay in treated cell lysates; settings: A549 cells treated 4 h
# Experimental: Cells were treated with complex 3 (4 h), and then cells were lysed in 50 mM Tris-HCl pH 7.6, 0.1% Triton X-100, 0.9% NaCl to obtain the Proteasome activity (EC 3.4.25.1). The proteasome activity was tested using the 20S Proteasome Activity Assay kit APT280 (Merck Millipore) and a computer-interfaced GeniusPlus microplate reader (Tecan Trading AG, Switzerland). The activity was normalized to the protein concentration and expressed as a percentage of control (untreated cells).
# [7] = tested on: BAX; experiment: BAX expression, flow cytometry; settings: A549, 72 h
# Experimental: as §1
smiles,measurement,setting,value
"CC(C)c1cccc(C(C)C)c1-n1ccn(-c2c(C(C)C)cccc2C(C)C)[c]1=[Au-][P+](CCNCC[P+]([Au-]=[c]1n(-c2c(C(C)C)cccc2C(C)C)ccn1-c1c(C(C)C)cccc1C(C)C)(C1CCCCC1)C1CCCCC1)(C1CCCCC1)C1CCCCC1 [Complex 3, [(Au(IPr))2(C28H24P2)](PF6)2]",Fold resistance (A2780cis/A2780),[1]; IC50 A2780cis/IC50 A2780,2.19
same,IC50,"[1]; MTT, 72 h, mean, SD in next cell",240 nM
same,anti-apoptotic BCL-2 expression,[2],down-regulated
same,ALDH1 enzymatic activity,[3],reduced
same,CD44 expression,[4],decreased
same,mitochondrial reactive oxygen species (mit-ROS),[5],increased
same,20S proteasome activity,[6],inhibited in a dose-dependent manner
same,pro-apoptotic BAX expression,[7],induced

# Reference: patent US20250222009A1, “DINUCLEAR GOLD(I) COMPLEXES FOR TREATING CANCER” (KING FAHD UNIVERSITY OF PETROLEUM AND MINERALS, priority 2024, published 2025)
